Experiments:
Assay in all cases: apparent dissociation constant (pKDapp, Kinobeads competition, Cheng-Prusoff corrected) (-log10 M); higher = tighter binding
RPS6KA4 = RPS6KA4 (UniProt O75676); conditions: affinity matrix / lysate: Kinobeads, mixed HEK293/K-562/placenta lysate
MARK3 = MARK3 (UniProt P27448); conditions: affinity matrix / lysate: Kinobeads, mixed HEK293/K-562/placenta lysate
GAK = GAK (UniProt O14976); conditions: affinity matrix / lysate: Kinobeads, mixed HEK293/K-562/placenta lysate
ADCK5 = ADCK5 (UniProt Q3MIX3); conditions: affinity matrix / lysate: Kinobeads, mixed HEK293/K-562/placenta lysate
PRKCQ = PRKCQ (UniProt Q04759); conditions: affinity matrix / lysate: Kinobeads, mixed HEK293/K-562/placenta lysate
FLT4 = FLT4 (UniProt P35916); conditions: affinity matrix / lysate: Kinobeads, mixed HEK293/K-562/placenta lysate
MASTL = MASTL (UniProt Q96GX5); conditions: affinity matrix / lysate: Kinobeads, mixed HEK293/K-562/placenta lysate
MAPK15 = MAPK15 (UniProt Q8TD08); conditions: affinity matrix / lysate: Kinobeads, mixed HEK293/K-562/placenta lysate
UHMK1 = UHMK1 (UniProt Q8TAS1); conditions: affinity matrix / lysate: Kinobeads, mixed HEK293/K-562/placenta lysate
DAPK3 = DAPK3 (UniProt O43293); conditions: affinity matrix / lysate: Kinobeads, mixed HEK293/K-562/placenta lysate
PIK3CA = PIK3CA (UniProt P42336); conditions: affinity matrix / lysate: Lipid Kinobeads, mixed HeLa/Jurkat/K-562 lysate
CAMK1D = CAMK1D (UniProt Q8IU85); conditions: affinity matrix / lysate: Kinobeads, mixed HEK293/K-562/placenta lysate
PAK6 = PAK6 (UniProt Q9NQU5); conditions: affinity matrix / lysate: Kinobeads, mixed HEK293/K-562/placenta lysate
BRSK1 = BRSK1 (UniProt Q8TDC3); conditions: affinity matrix / lysate: Kinobeads, mixed HEK293/K-562/placenta lysate
TLK1 = TLK1 (UniProt Q9UKI8); conditions: affinity matrix / lysate: Kinobeads, mixed HEK293/K-562/placenta lysate
RIOK2 = RIOK2 (UniProt Q9BVS4)
PRKD3 = PRKD3 (UniProt O94806); conditions: affinity matrix / lysate: Kinobeads, mixed HEK293/K-562/placenta lysate
MAP4K4 = MAP4K4 (UniProt O95819); conditions: affinity matrix / lysate: Kinobeads, mixed HEK293/K-562/placenta lysate
CSNK1G1 = CSNK1G1 (UniProt Q9HCP0); conditions: affinity matrix / lysate: Kinobeads, mixed HEK293/K-562/placenta lysate
RPS6KA2 = RPS6KA2 (UniProt Q15349); conditions: affinity matrix / lysate: Kinobeads, mixed HEK293/K-562/placenta lysate
MAP2K6 = MAP2K6 (UniProt P52564); conditions: affinity matrix / lysate: Kinobeads, mixed HEK293/K-562/placenta lysate
RIPK4 = RIPK4 (UniProt P57078); conditions: affinity matrix / lysate: Kinobeads, mixed HEK293/K-562/placenta lysate
PIP4K2A = PIP4K2A (UniProt P48426); conditions: affinity matrix / lysate: Kinobeads, mixed HEK293/K-562/placenta lysate
TEK = TEK (UniProt Q02763); conditions: affinity matrix / lysate: Kinobeads, mixed HEK293/K-562/placenta lysate
AKT1 = AKT1 (UniProt P31749); conditions: affinity matrix / lysate: Kinobeads, mixed HEK293/K-562/placenta lysate
BRD4 = BRD4 (UniProt O60885); conditions: affinity matrix / lysate: Kinobeads, mixed HEK293/K-562/placenta lysate
MAPK11 = MAPK11 (UniProt Q15759); conditions: affinity matrix / lysate: Kinobeads, mixed HEK293/K-562/placenta lysate
LOC100128443 = conditions: affinity matrix / lysate: Kinobeads, mixed HEK293/K-562/placenta lysate
CDC7 = CDC7 (UniProt O00311); conditions: affinity matrix / lysate: Kinobeads, mixed HEK293/K-562/placenta lysate
PKN1 = PKN1 (UniProt Q16512); conditions: affinity matrix / lysate: Kinobeads, mixed HEK293/K-562/placenta lysate
MET = MET (UniProt P08581); conditions: affinity matrix / lysate: Kinobeads, mixed HEK293/K-562/placenta lysate
ROCK2 = ROCK2 (UniProt O75116); conditions: affinity matrix / lysate: Kinobeads, mixed HEK293/K-562/placenta lysate
CSNK1G2 = CSNK1G2 (UniProt P78368); conditions: affinity matrix / lysate: Kinobeads, mixed HEK293/K-562/placenta lysate
[1] = affinity matrix / lysate: Kinobeads, mixed HEK293/K-562/placenta lysate
[2] = affinity matrix / lysate: Lipid Kinobeads, mixed HeLa/Jurkat/K-562 lysate

Chain of RIOK2 (Q9BVS4 whole entry, looked up): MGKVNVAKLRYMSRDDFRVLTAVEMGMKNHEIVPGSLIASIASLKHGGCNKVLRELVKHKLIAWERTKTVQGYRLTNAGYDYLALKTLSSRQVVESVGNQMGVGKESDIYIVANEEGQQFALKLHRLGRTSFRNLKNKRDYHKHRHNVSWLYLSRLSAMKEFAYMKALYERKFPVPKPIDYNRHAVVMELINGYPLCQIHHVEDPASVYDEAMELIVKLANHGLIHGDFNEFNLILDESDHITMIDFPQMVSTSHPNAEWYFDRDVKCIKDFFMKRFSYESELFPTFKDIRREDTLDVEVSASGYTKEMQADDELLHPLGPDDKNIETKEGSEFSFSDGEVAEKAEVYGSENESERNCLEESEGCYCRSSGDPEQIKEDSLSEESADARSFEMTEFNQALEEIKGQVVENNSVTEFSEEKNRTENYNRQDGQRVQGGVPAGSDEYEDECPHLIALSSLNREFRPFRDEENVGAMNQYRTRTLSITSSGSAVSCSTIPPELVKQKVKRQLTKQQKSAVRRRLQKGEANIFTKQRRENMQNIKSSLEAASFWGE
Chain of PKN1 (Q16512 whole entry, looked up): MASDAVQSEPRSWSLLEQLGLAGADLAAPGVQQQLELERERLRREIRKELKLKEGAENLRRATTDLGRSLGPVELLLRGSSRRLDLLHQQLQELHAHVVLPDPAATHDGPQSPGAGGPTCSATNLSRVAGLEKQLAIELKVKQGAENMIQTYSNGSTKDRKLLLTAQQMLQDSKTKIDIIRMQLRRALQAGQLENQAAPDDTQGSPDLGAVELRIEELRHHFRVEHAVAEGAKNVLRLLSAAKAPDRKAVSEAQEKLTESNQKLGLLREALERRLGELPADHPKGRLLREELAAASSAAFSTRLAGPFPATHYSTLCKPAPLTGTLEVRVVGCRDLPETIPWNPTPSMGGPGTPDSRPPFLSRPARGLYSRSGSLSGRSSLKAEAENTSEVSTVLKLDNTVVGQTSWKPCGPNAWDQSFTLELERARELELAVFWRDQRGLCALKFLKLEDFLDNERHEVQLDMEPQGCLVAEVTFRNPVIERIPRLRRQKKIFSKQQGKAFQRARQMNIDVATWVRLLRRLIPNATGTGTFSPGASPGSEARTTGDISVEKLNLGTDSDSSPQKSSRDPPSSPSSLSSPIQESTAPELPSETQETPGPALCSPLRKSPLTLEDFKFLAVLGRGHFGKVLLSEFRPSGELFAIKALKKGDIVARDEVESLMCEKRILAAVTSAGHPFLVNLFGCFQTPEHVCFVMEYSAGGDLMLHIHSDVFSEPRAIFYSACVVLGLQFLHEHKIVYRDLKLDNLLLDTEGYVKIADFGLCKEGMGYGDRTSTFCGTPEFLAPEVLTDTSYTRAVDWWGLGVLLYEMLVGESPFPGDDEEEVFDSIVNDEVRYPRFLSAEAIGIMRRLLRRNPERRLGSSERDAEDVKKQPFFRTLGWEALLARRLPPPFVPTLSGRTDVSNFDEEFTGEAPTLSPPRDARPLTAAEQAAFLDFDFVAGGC
Chain of TEK (Q02763 whole entry): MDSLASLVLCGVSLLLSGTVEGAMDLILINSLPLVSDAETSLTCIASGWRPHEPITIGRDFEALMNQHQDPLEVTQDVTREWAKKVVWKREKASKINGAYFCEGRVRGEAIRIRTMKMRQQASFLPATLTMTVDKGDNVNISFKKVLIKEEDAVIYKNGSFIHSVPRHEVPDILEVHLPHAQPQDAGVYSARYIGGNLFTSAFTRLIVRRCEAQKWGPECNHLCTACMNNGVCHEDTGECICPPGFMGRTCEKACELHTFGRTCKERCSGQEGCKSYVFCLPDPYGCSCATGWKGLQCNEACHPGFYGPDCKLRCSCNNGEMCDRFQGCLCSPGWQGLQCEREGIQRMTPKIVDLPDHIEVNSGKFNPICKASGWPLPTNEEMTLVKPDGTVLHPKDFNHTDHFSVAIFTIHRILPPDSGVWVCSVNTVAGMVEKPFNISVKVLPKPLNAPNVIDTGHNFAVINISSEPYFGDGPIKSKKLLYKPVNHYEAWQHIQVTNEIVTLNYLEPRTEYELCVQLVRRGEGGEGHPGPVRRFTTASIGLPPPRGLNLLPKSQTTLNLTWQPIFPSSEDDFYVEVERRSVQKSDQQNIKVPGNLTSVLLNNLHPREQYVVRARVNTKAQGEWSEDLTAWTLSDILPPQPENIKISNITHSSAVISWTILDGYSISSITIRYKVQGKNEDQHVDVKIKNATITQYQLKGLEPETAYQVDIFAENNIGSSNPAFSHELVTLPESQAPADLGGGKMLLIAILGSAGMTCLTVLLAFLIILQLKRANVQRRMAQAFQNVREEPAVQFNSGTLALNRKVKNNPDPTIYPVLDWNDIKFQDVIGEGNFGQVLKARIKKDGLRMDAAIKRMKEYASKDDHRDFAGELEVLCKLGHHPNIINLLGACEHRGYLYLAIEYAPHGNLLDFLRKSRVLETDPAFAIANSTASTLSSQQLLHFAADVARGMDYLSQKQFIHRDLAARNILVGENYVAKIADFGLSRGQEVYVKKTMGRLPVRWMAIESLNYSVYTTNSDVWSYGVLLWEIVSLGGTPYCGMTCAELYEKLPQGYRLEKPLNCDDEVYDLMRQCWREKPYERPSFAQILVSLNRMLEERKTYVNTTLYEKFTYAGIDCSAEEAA
Chain of PRKCQ (Q04759 whole entry, looked up): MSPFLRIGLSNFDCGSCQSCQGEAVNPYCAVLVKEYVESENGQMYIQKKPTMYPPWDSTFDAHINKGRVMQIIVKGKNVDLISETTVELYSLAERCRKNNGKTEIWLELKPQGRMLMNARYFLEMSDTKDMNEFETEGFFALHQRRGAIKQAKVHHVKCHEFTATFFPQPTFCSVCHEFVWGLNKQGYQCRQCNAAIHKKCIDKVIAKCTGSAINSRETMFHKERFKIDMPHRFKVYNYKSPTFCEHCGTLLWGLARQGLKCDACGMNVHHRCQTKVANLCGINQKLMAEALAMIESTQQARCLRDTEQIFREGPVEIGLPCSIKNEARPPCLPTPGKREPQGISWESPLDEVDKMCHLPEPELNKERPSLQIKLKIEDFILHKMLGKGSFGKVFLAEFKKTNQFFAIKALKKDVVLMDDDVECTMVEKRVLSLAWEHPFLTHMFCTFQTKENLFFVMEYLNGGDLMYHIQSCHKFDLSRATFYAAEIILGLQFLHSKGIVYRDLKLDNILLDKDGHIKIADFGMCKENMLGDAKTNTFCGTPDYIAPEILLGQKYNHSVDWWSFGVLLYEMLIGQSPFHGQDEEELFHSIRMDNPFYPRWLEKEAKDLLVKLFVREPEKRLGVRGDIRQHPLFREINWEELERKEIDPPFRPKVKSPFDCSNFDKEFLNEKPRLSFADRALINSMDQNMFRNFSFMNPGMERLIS
Chain of BRSK1 (Q8TDC3 whole entry): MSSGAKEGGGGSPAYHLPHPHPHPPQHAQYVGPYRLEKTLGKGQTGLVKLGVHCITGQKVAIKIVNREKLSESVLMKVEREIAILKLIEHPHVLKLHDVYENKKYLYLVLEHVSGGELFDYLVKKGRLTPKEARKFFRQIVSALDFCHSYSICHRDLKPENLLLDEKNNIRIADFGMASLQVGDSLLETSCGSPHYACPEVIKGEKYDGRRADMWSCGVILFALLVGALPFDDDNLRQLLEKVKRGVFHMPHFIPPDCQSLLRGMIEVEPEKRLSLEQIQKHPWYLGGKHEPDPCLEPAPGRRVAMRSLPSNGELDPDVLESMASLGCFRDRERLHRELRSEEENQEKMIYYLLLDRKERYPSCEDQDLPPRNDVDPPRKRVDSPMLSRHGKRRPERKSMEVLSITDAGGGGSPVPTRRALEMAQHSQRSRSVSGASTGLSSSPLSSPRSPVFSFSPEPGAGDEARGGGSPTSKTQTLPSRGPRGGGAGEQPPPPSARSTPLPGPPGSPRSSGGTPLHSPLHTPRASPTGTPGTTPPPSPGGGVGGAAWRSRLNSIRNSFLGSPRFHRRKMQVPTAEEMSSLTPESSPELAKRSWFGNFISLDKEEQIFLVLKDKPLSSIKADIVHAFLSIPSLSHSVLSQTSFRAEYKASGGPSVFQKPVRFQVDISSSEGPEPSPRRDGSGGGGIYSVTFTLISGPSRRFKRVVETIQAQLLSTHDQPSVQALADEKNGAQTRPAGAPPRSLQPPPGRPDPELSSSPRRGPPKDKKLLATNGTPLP
Chain of PIP4K2A (P48426 whole entry): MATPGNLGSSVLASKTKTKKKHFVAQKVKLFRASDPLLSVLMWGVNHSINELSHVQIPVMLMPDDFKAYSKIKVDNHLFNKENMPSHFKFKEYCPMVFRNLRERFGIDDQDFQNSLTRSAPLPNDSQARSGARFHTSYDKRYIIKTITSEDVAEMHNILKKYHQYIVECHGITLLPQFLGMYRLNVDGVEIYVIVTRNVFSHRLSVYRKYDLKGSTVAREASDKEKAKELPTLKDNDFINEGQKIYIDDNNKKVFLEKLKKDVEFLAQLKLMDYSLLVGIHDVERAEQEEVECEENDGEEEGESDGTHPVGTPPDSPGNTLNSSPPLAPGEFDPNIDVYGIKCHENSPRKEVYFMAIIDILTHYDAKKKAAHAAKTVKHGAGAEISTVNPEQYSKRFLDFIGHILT
Chain of MAP2K6 (P52564 whole entry): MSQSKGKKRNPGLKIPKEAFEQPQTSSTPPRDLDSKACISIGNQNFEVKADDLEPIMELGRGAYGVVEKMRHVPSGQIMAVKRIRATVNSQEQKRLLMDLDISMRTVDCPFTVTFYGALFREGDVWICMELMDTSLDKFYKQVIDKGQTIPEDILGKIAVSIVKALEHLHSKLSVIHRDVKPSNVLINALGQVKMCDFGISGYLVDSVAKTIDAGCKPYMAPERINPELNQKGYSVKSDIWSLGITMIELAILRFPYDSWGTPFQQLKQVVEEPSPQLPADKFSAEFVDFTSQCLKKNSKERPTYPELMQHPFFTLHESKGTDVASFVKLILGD

apparent dissociation constant (-log10 M) (RPS6KA4)	apparent dissociation constant (-log10 M) (MARK3)	apparent dissociation constant (-log10 M) (GAK)	apparent dissociation constant (-log10 M) (ADCK5)	apparent dissociation constant (-log10 M) (PRKCQ)	apparent dissociation constant (-log10 M) (FLT4)	apparent dissociation constant (-log10 M) (MASTL)	apparent dissociation constant (-log10 M) (UHMK1)	apparent dissociation constant (-log10 M) (DAPK3)	apparent dissociation constant (-log10 M) (PIK3CA)	apparent dissociation constant (-log10 M) (CAMK1D)	apparent dissociation constant (-log10 M) (PAK6)	apparent dissociation constant (-log10 M) (BRSK1)	apparent dissociation constant (-log10 M) (TLK1)	apparent dissociation constant (-log10 M) (RIOK2; [1])	apparent dissociation constant (-log10 M) (RIOK2; [2])	apparent dissociation constant (-log10 M) (PRKD3)	apparent dissociation constant (-log10 M) (MAP4K4)	apparent dissociation constant (-log10 M) (CSNK1G1)	apparent dissociation constant (-log10 M) (RPS6KA2)	apparent dissociation constant (-log10 M) (MAP2K6)	apparent dissociation constant (-log10 M) (RIPK4)	apparent dissociation constant (-log10 M) (PIP4K2A)	apparent dissociation constant (-log10 M) (TEK)	apparent dissociation constant (-log10 M) (AKT1)	apparent dissociation constant (-log10 M) (BRD4)	apparent dissociation constant (-log10 M) (MAPK11)	apparent dissociation constant (-log10 M) (LOC100128443)	apparent dissociation constant (-log10 M) (CDC7)	apparent dissociation constant (-log10 M) (PKN1)	apparent dissociation constant (-log10 M) (MET)	apparent dissociation constant (-log10 M) (ROCK2)	apparent dissociation constant (-log10 M) (CSNK1G2)	Structure (SMILES)	apparent dissociation constant (-log10 M) (MAPK15)
< 6	< 6	< 6	< 6	< 6	< 6	< 6	< 6	< 6	< 6	< 6	< 6	< 6	< 6	< 6	< 6	< 6	< 6	< 6	< 6	< 6	< 6	< 6	< 6	< 6	< 6	< 6	< 6	< 6	< 6	< 6	–	–	CCNC(=O)Nc1ccc(-c2nc(N3CCOC[C@@H]3C)c3c(n2)C(C)(C)S(=O)(=O)C3)cc1 [CZ415]	< 6
< 6	< 6	< 6	–	< 6	< 6	< 6	–	< 6	7.17	–	–	< 6	–	< 6	< 6	< 6	< 6	–	< 6	< 6	–	< 6	< 6	< 6	–	< 6	< 6	< 6	< 6	< 6	< 6	< 6	COc1ccc(-c2ccc3c(N4CCOC[C@@H]4C)nc(N4CCOC[C@@H]4C)nc3n2)cc1CO [AZD8055]	–
